According to PMC3203539 (2011):
Read-outs that look alike come from different tables or passages of the source.

Legend:
[1] = target: T1, Sth1 (ATPase subunit of RSCt, trimeric minimal RSC) (Saccharomyces cerevisiae, UniProt P32597); assay type: binding
T1 sequence (P32597 301-1097): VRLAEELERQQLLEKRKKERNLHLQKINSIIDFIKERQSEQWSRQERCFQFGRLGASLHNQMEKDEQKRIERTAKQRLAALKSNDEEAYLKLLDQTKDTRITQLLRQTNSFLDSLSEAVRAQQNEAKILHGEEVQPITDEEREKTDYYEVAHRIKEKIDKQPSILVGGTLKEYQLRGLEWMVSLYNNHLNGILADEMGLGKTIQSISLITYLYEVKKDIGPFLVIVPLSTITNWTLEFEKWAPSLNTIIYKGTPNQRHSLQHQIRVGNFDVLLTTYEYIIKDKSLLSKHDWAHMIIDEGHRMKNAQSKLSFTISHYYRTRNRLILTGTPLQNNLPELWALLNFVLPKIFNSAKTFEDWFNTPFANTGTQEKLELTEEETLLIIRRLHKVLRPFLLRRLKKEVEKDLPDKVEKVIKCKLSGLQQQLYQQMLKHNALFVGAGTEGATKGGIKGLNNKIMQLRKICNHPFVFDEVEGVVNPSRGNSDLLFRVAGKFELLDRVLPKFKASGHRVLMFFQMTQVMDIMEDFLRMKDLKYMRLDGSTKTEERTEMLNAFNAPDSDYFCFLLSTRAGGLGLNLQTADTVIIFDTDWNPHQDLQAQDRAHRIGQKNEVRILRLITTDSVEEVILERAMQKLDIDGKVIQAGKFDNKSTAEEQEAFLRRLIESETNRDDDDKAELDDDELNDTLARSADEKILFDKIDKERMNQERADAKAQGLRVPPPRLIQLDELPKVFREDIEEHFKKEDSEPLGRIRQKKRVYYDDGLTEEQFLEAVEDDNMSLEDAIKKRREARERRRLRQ
T1 sequence (Q12406 1-477 partner): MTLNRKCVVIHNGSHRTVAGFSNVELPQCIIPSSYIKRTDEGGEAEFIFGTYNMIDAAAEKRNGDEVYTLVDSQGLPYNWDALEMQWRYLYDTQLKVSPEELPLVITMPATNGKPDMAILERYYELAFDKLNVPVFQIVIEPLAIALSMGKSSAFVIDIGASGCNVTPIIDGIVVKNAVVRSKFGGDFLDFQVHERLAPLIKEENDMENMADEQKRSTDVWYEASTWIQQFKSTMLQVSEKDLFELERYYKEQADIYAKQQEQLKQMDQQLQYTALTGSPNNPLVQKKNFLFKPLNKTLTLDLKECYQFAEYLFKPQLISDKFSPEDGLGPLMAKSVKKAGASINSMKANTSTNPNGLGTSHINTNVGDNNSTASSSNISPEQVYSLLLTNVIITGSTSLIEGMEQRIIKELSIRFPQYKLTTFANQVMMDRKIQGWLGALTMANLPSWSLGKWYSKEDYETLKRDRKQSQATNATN
T1 sequence (Q05123 1-467 partner): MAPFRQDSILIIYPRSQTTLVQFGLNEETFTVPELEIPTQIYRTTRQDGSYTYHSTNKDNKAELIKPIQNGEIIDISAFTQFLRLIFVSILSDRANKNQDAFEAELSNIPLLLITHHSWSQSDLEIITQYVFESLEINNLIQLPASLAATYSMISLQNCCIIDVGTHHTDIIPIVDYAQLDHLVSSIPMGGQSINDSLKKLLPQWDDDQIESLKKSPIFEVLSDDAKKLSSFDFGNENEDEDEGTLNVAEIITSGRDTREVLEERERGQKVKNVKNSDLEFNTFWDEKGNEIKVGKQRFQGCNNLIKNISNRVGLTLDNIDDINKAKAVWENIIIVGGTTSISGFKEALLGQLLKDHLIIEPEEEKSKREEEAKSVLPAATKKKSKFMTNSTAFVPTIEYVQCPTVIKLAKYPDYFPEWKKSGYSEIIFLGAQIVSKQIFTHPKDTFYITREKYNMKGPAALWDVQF

[2] = target: T1, Sth1 (ATPase subunit of RSCt, trimeric minimal RSC); assay type: binding; remark: listed apart in the source

Row | SMILES | Kd [1] | Kd [2]
1 | Nc1ncnc2c1ncn2[C@@H]1O[C@H](COP(=O)(O)OP(=O)(O)O)[C@@H](O)[C@H]1O [ADP] | 14 ± 4 µM | 
2 | Nc1ncnc2c1ncn2[C@@H]1O[C@H](COP(=O)(O)OP(=O)(O)NP(=O)(O)O)[C@@H](O)[C@H]1O [AMP-PNP] |  | 72 ± 6 µM
